In the assay the test system is Hedgehog signalling (Gli-bla NIH3T3 cells, mShh stimulated). Nature of the assay: Hedgehog signalling inhibition assay (Gli-Bla reporter assay in NIH 3T3 cells). It is filed as cell-based. To be noted: Mus musculus. As for the experimental part: Hedgehog signalling inhibition assays. The following table 2 represents the average EC50 values for particular compounds of the inventions. Gli-bla NIH3T3 cells (7500 cells/well) were plated the day prior to the assay in a 384-well and 96-format in complete growth medium. […] Cells were stimulated with mShh for 24 hours and then loaded with LiveBLAzer™-FRET B/G Substrate for 3 hours. Emission values at 460 nm and 530 nm were obtained using a standard fluorescence plate reader and the 460/530 Ratios plotted for each treatment (n=4 for each data point).
J. Cancer, 2011, 30(7):472-81).

Molecules are shown by their SMILES. Like-named read-outs stand apart in the source and are kept apart here. Where only a bound is given, the exact number is not on record here.

For 50 compounds, EC50 results are on record in patent US10183013B2, “Cyclic sulfonamide containing derivatives as inhibitors of hedgehog signaling pathway” (NantBioScience, Inc., priority 2012, dated 2019).

For `O=C(Nc1ccc(Cl)c(-c2nccc3ccccc23)c1)c1ccc(N2CCCCS2(=O)=O)c(Cl)c1` [Example 115], for the setting “NIH3T3, 24 h, read-out: EC50”, the concentration giving a half-maximal response (EC50) was under 10 nM. On to `O=C(Nc1ccc(Cl)c(-c2ccc3cnccc3n2)c1)c1ccc(N2CCOCS2(=O)=O)cc1Cl` [Example 107, 2-chloro-N-(4-chloro-3-(1,6-naphthyridin-2-yl)phenyl)-4-(3,3-dioxido-1,3,4-oxathiazinan-4-yl)benzamide], for which the EC50 (NIH3T3, 24 h, read-out: EC50) is under 10 nM. With `O=C(Nc1ccc(Cl)c(-c2nccc3ncccc23)c1)c1ccc(N2CCOCS2(=O)=O)cc1` [Example 109, N-(4-chloro-3-(1,6-naphthyridin-5-yl)phenyl)-4-(3,3-dioxido-1,3,4-oxathiazinan-4-yl)benzamide], the EC50 (NIH3T3, 24 h, read-out: EC50) was under 10 nM. As to `O=C(Nc1ccc(Cl)c(-c2nccc3ccccc23)c1)c1ccc(N2CCCS2(=O)=O)c(Cl)c1` [Example 114], the EC50 (NIH3T3, 24 h, read-out: EC50) was under 10 nM. Take `CC(=O)Nc1cc(NC(=O)c2ccc(N3CCCS3(=O)=O)cc2Cl)ccc1Cl` [Example 140]: the EC50 (NIH3T3, 24 h, read-out: EC50) came out at 1000 nM. On the same count and under the same terms, for `O=C(Nc1cc(NC(=O)c2ccc(N3CCOCS3(=O)=O)cc2Cl)ccc1Cl)c1ccc(Cl)cc1` [Example 126, 2-chloro-N-(4-chloro-3-(4-chlorobenzamido)phenyl)-4-(3,3-dioxido-1,3,4-oxathiazinan-4-yl)benzamide] the value was under 10 nM; for `O=C(Nc1ccc(Cl)c(-c2nccc3ccccc23)c1)c1ccc(N2CCOCS2(=O)=O)cc1` [Example 108, N-(4-chloro-3-(isoquinolin-1-yl)phenyl)-4-(3,3-dioxido-1,3,4-oxathiazinan-4-yl)benzamide], 11000 nM; for `O=C(Nc1ccc(Cl)c(-c2ccc3ccccc3n2)c1)c1ccc(N2CCCCS2(=O)=O)cc1` [Example 93], under 10 nM. On to `O=C(Nc1cc(NC(=O)c2ccc(N3CCOCS3(=O)=O)cc2F)ccc1Cl)c1ccccc1` [Example 124, N-(3-benzamido-4-chlorophenyl)-4-(3,3-dioxido-1,3,4-oxathiazinan-4-yl)-2-fluorobenzamide], for which, under “NIH3T3, 24 h, read-out: EC50”, the EC50 is under 10 nM. In the case of `CC(=O)Nc1cc(NC(=O)c2ccc(N3CCOCS3(=O)=O)cc2Cl)ccc1Cl` [Example 143], the EC50 (NIH3T3, 24 h, read-out: EC50) is under 10 nM.

For `O=C(Nc1cc(NC(=O)c2ccc(N3CCOCS3(=O)=O)cc2Cl)ccc1Cl)c1cccnc1` [Example 136], for the setting “NIH3T3, 24 h, read-out: EC50”, the EC50 was under 10 nM.

For the compound `O=C(Nc1ccc(Cl)c(-c2nccc3ncccc23)c1)c1ccc(N2CCCS2(=O)=O)cc1Cl` [Example 112], the concentration for a half-maximal effect (EC50) (NIH3T3, 24 h, read-out: EC50) is under 10 nM. Same read-out and setting: for `O=C(Nc1ccc(Cl)c(-c2nccc3ccccc23)c1)c1ccc(N2CCCS2(=O)=O)cc1` [Example 86] the value was 28000 nM; for `O=C(Nc1ccc(Cl)c(-c2nccc3ccccc23)c1)c1ccc(N2CCOCS2(=O)=O)cc1F` [Example 117, N-(4-chloro-3-(isoquinolin-1-yl)phenyl)-4-(3,3-dioxido-1,3,4-oxathiazinan-4-yl)-2-fluorobenzamide], 16000 nM; for `O=C(Nc1cc(NC(=O)c2ccc(N3CCOCS3(=O)=O)cc2Cl)ccc1Cl)c1cccc(F)c1` [Example 125, 2-chloro-N-(4-chloro-3-(3-fluorobenzamido)phenyl)-4-(3,3-dioxido-1,3,4-oxathiazinan-4-yl)benzamide], under 10 nM. For the compound `O=C(Nc1ccc(Cl)c(Oc2cccc(Cl)c2)c1)c1ccc(N2CCCS2(=O)=O)cc1` [Example 138], the EC50 (NIH3T3, 24 h, read-out: EC50) was under 10 nM. The same measure, in the same setting: as for `O=C(Nc1ccc(Cl)c(-c2nccc3ccccc23)c1)c1ccc(N2CCCCS2(=O)=O)cc1` [Example 94], the figure is under 10 nM; as for `O=C(Nc1ccc(Cl)c(-c2ccc3cnccc3n2)c1)c1ccc(N2CCCS2(=O)=O)cc1` [Example 90], 12000 nM.

For `O=C(Nc1ccc(Cl)c(Oc2cccc(Cl)c2)c1)c1ccc(N2CCCS2(=O)=O)cc1Cl` [Example 131], the EC50 (NIH3T3, 24 h, read-out: EC50) was under 10 nM. Same read-out and setting: for `O=C(Nc1ccc(Cl)c(NC(=O)c2ccccc2)c1)c1ccc(N2CCCS2(=O)=O)c(F)c1` [Example 118] the value was under 10 nM; for `O=C(Nc1ccc(Cl)c(-c2ccc3ncccc3n2)c1)c1ccc(N2CCCS2(=O)=O)cc1` [Example 88], 10000 nM; for `O=C(Nc1ccc(Cl)c(-c2nccc3ncccc23)c1)c1ccc(N2CCCS2(=O)=O)c(Cl)c1` [Example 113], under 10 nM.

`O=C(Nc1ccc(Cl)c(NC(=O)c2cccc(Cl)c2)c1)c1ccc(N2CCCCS2(=O)=O)cc1` [Example 128]: under “NIH3T3, 24 h, read-out: EC50”, the concentration giving a half-maximal response (EC50) was under 10 nM. `O=C(Nc1ccc(Cl)c(NC(=O)c2cccc(Cl)c2)c1)c1ccc(N2CCCS2(=O)=O)c(F)c1` [Example 121]: the EC50 (NIH3T3, 24 h, read-out: EC50) is under 10 nM. Take `O=C(Nc1ccc(Cl)c(-c2nccc3ccccc23)c1)c1ccc(N2CCOCS2(=O)=O)cc1Cl` [Example 104, 2-chloro-N-(4-chloro-3-(isoquinolin-1-yl)phenyl)-4-(3,3-dioxido-1,3,4-oxathiazinan-4-yl)benzamide]: the EC50 (NIH3T3, 24 h, read-out: EC50) was under 10 nM. On the same count and under the same terms, as for `O=C(Nc1ccc(Cl)c(-c2ccccn2)c1)c1ccc(N2CCCS2(=O)=O)cc1` [Example 84], the figure is under 10 nM; as for `O=C(Nc1ccc(Cl)c(-c2ccc3ncccc3n2)c1)c1ccc(N2CCCCS2(=O)=O)cc1` [Example 97], under 10 nM. On to `O=C(Nc1ccc(Cl)c(-c2ccc3ncccc3n2)c1)c1ccc(N2CCOCS2(=O)=O)cc1Cl` [Example 106, 2-chloro-N-(4-chloro-3-(1,5-naphthyridin-2-yl)phenyl)-4-(3,3-dioxido-1,3,4-oxathiazinan-4-yl)benzamide], for which the EC50 (NIH3T3, 24 h, read-out: EC50) is under 10 nM. In the case of `O=C(Nc1ccc(Cl)c(-c2nccc3ncccc23)c1)c1ccc(N2CCOCS2(=O)=O)cc1Cl` [Example 105, 2-chloro-N-(4-chloro-3-(1,6-naphthyridin-5-yl)phenyl)-4-(3,3-dioxido-1,3,4-oxathiazinan-4-yl)benzamide], the EC50 (NIH3T3, 24 h, read-out: EC50) is under 10 nM. On to `O=C(Nc1ccc(Cl)c(-c2nccc3ncccc23)c1)c1ccc(N2CCOCS2(=O)=O)cc1F` [Example 116, N-(4-chloro-3-(1,6-naphthyridin-5-yl)phenyl)-4-(3,3-dioxido-1,3,4-oxathiazinan-4-yl)-2-fluorobenzamide], for which the EC50 (NIH3T3, 24 h, read-out: EC50) was under 10 nM. As for `O=C(Nc1cc(NC(=O)c2ccc(N3CCCS3(=O)=O)cc2Cl)ccc1Cl)c1cccnc1` [Example 135, N-(2-chloro-5-(2-chloro-4-(1,1-dioxidoisothiazolidin-2-yl)benzamido)phenyl) nicotinamide], the EC50 (NIH3T3, 24 h, read-out: EC50) was under 10 nM. For `O=C(Nc1cc(NC(=O)c2ccc(N3CCOCS3(=O)=O)cc2Cl)ccc1Cl)c1nccs1` [Example 127, N-(2-chloro-5-(2-chloro-4-(3,3-dioxido-1,3,4-oxathiazinan-4-yl)benzamido)phenyl)thiazole-2-carboxamide], the concentration for a half-maximal effect (EC50) (NIH3T3, 24 h, read-out: EC50) was under 10 nM. Take `O=C(Nc1ccc(Cl)c(NC(=O)c2cccnc2)c1)c1ccc(N2CCCS2(=O)=O)c(F)c1` [Example 119]: the 50% effective concentration (EC50) (NIH3T3, 24 h, read-out: EC50) is under 10 nM. With `CS(=O)(=O)c1ccc(C(=O)Nc2ccc(Cl)c(-c3ccccn3)c2)c(Cl)c1` [GDC-0449, reference compound], under “NIH3T3, NIH 3T3 cells, read-out: Gli-Bla reporter assay (EC50)”, the EC50 worked out at 7 nM. Take `O=C(Nc1ccc(Cl)c(-c2nccc3ncccc23)c1)c1ccc(N2CCCCS2(=O)=O)cc1Cl` [Example 103]: for the setting “NIH3T3, 24 h, read-out: EC50”, the EC50 was under 10 nM. Take `O=C(Nc1ccc(Cl)c(-c2ccc3ccccc3n2)c1)c1ccc(N2CCCCS2(=O)=O)cc1Cl` [Example 99]: the EC50 (NIH3T3, 24 h, read-out: EC50) is under 10 nM. On to `O=C(Nc1ccc(Cl)c(-c2nccc3ccccc23)c1)c1ccc(N2CCCCS2(=O)=O)cc1Cl` [Example 98], for which the EC50 (NIH3T3, 24 h, read-out: EC50) was under 10 nM. For the compound `O=C(Nc1cc(NC(=O)c2ccc(N3CCOCS3(=O)=O)cc2Cl)ccc1Cl)c1ccccc1` [Example 122, N-(3-benzamido-4-chlorophenyl)-2-chloro-4-(3,3-dioxido-1,3,4-oxathiazinan-4-yl)benzamide], the concentration for a half-maximal effect (EC50) (NIH3T3, 24 h, read-out: EC50) is under 10 nM.

With `O=C(Nc1cc(NC(=O)c2ccc(N3CCCS3(=O)=O)cc2Cl)ccc1Cl)c1ccccc1` [Example 134], the EC50 (NIH3T3, 24 h, read-out: EC50) is under 10 nM. In the case of `O=C(Nc1ccc(Cl)c(-c2ccc3ncccc3n2)c1)c1ccc(N2CCCCS2(=O)=O)cc1Cl` [Example 102], the concentration for a half-maximal effect (EC50) (NIH3T3, 24 h, read-out: EC50) is under 10 nM. Consider `O=C(Nc1ccc(Cl)c(-c2ccc3cnccc3n2)c1)c1ccc(N2CCCCS2(=O)=O)cc1Cl` [Example 101], for which the EC50 (NIH3T3, 24 h, read-out: EC50) was under 10 nM.

For the compound `O=C(Nc1ccc(Cl)c(-c2ccc3ccccc3n2)c1)c1ccc(N2CCCS2(=O)=O)cc1` [Example 87], the EC50 (NIH3T3, 24 h, read-out: EC50) came to 3000 nM.

Consider `O=C(Nc1ccc(Cl)c(-c2ccccn2)c1)c1ccc(N2CCOCS2(=O)=O)cc1F` [Example 123, N-(4-chloro-3-(pyridin-2-yl)phenyl)-4-(3,3-dioxido-1,3,4-oxathiazinan-4-yl)-2-fluorobenzamide], for which, for the setting “NIH3T3, 24 h, read-out: EC50”, the EC50 is under 10 nM. For the compound `O=C(Nc1ccc(Oc2cccc(Cl)c2)cc1)c1ccc(N2CCOCS2(=O)=O)cc1Cl` [Example 142], the EC50 (NIH3T3, 24 h, read-out: EC50) was under 10 nM.

With `O=C(Nc1ccc(Cl)c(-c2ncc3ccccc3n2)c1)c1ccc(N2CCCCS2(=O)=O)cc1Cl` [Example 100], the concentration for a half-maximal effect (EC50) (NIH3T3, 24 h, read-out: EC50) was under 10 nM. Still for that read-out and setting: for `O=C(Nc1ccc(Cl)c(Oc2cccc(Cl)c2)c1)c1ccc(N2CCCS2(=O)=O)c(F)c1` [Example 139] the value was under 10 nM; for `Cc1ccc(NC(=O)c2ccc(N3CCCS3(=O)=O)cc2Cl)cc1-c1nccc2ccccc12` [Example 111], under 10 nM; for `O=C(Nc1ccc(Cl)c(-c2ccc3cnccc3n2)c1)c1ccc(N2CCCCS2(=O)=O)cc1` [Example 96], under 10 nM.

Take `O=C(Nc1ccc(Cl)c(NC(=O)c2ccccc2Cl)c1)c1ccc(N2CCOCS2(=O)=O)cc1Cl` [Example 133, 2-chloro-N-(4-chloro-3-(2-chlorobenzamido)phenyl)-4-(3,3-dioxido-1,3,4-oxathiazinan-4-yl)benzamide]: the EC50 (NIH3T3, 24 h, read-out: EC50) was under 10 nM. Take `O=C(Nc1cc(NC(=O)c2ccc(N3CCOCS3(=O)=O)cc2Cl)ccc1Cl)c1cccc(Cl)c1` [Example 130]: where the note is “NIH3T3, 24 h, read-out: EC50”, the EC50 is under 10 nM.
